The text below walks through data of PMC12495443, “Developing inhibitors of the guanosine triphosphate hydrolysis accelerating activity of Regulator of G protein Signaling-14 [drawing 1]” (The Journal of Biological Chemistry, 2025).

The structures appear in SMILES notation. Substitutions are numbered along the chain they refer to. Entries after “also recorded” stand apart in the source; their conditions may differ.

The target in data set [1] is T1, cysteine-less RGS12 RGS-box protein (Homo sapiens, UniProt O14924, C701S/C748S/C775S/C831S).
T1 construct: human RGS12 RGS-box (aa 695–843 of UniProt O14924); host or cells: E. coli
T1 sequence (O14924 695-843 C701S/C748S/C775S/C831S): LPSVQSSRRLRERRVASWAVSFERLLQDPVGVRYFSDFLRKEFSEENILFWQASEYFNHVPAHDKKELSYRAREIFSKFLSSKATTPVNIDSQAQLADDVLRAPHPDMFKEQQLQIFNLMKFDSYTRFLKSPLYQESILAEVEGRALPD
Kind of data set: Transcreener GDP RGScreen assay with cysteine-less RGS12 RGS-box. The note with it: range given jointly for cysteine-less RGS14 and RGS12 proteins; read-out: estimated IC50, cysteine-less RGS12 RGS-box. In kind it is biochemical. An excerpt:
Given the earlier experience with screening hit CCG-4986 being a covalent modifier of RGS4 cysteine residues ([35]), we sought to exclude protein-thiol reactivity as a potential mechanism of action of the active compounds derived from the AtomNet virtual screening effort ([55]) and SAR campaign follow-ups. To address this possibility and screen out thiol-reactive hits, cysteine-lacking versions of recombinant proteins spanning the RGS-boxes of RGS14 and RGS12 were purified from E. coli cultures.
Reagents and protocols for the fluorescence anisotropy-based Transcreener GDP RGScreen assay using a rate-altered, double point-mutant, recombinant Gαi1 protein have been extensively described previously ([43], [44]); reactions were always performed so that total GTP converted over the time course was consistently less than 10% of reaction maximum input. […] Open-reading frames (ORFs) encoding wild-type versions of the human RGS14 RGS-box (aa 46–195 of UniProt O43566) and human RGS12 RGS-box (aa 695–843 of UniProt O14924) were each sub-cloned in-frame with an N-terminal hexahistidine (His6) expression tag in the plasmid pET30a, expressed in E. coli cultures, and then purified by nickel-nitriloacetate (Ni-NTA) and size-exclusion (Superdex 200) column chromatographies by GenScript using previously described methods ([35]). […]

The target in data set [2] is T2, human RGS12 RGS-box (wild-type) (Homo sapiens, UniProt O14924).
T2 construct: human RGS12 RGS-box (aa 695–843 of UniProt O14924); host or cells: E. coli
T2 sequence (O14924 695-843): T1 sequence (O14924 695-843 C701S/C748S/C775S/C831S) with S7C, S54C, S81C, S137C
Briefly: Transcreener GDP RGScreen fluorescence polarization assay of RGS12 RGS-box GAP activity on Gαi1(DM). In kind it is biochemical. The following applies: wild-type RGS12 RGS-box GAP activity, Gαi1(DM), read-out: RGS12 pIC50 (converted). The procedure, abridged: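 Steady-state GTP hydrolysis by rate-altered double point-mutant Gαi1 was read by Transcreener GDP fluorescence polarization, with GTP conversion kept below 10% of maximum input. The E. coli-expressed, N-terminal His6-tagged wild-type RGS-boxes were RGS12 aa 695–843 and RGS14 aa 46–195.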
Background: In fluorescence polarisation assays a small probe gives low polarisation when free and higher when bound to something large.

Data set [3] concerns THP-1 cell line. Briefly: Cytotoxicity assays (CytoTox-Glo, CytoTox 96). In kind it is cell-based. The note with it: THP-1 cells, overnight, CytoTox-Glo and CytoTox 96. On the procedure:
To evaluate cellular toxicity of active compounds, we employed the immortalized human monocytic THP1-Dual cell line (InvivoGen) in two orthogonal cytotoxicity assays: ATP-dependent luminescence (CytoTox-Glo) and colorimetric lactate dehydrogenase (LDH) release (CytoTox 96). For each assay, compounds were serially diluted 2-fold starting at 250 μM and added to 96-well flat-bottom tissue culture plates (Thermo Scientific Nunc, Cat# 165306). THP1-Dual cells were then seeded at 20,000 to 30,000 cells per well in 100 μl RPMI 1640 media supplemented with 10% fetal bovine serum (Gibco). Plates were gently mixed and incubated overnight at 37 °C in a humidified 5% CO2 incubator. For the CytoTox-Glo assay (Promega, Cat# G9291), 50 μl of assay reagent was added to each well. Plates were mixed briefly, sealed, and incubated at room temperature for 15 min before reading luminescence on a TECAN Infinite M1000 Pro plate reader to quantify dead-cell signal. Subsequently, 50 μl of a digitonin-containing lysis solution was added to each well, followed by a second luminescence read after 15 min to assess total cell content. Percent cytotoxicity was calculated per manufacturer instructions. For the CytoTox 96 Non-Radioactive Cytotoxicity Assay (Promega, Cat# G1780), after overnight compound treatment, LDH release into the culture medium was measured by adding the provided substrate mix. Absorbance was read at 490 or 492 nm within 1 h of adding the stop solution. Assay optimization and data normalization were conducted according to the manufacturer’s technical manual.

`COc1ccc(OCc2nnc3n2N=C(c2ccc(OC)c(OC)c2)CS3)cc1` [Z55660043, 6-(3,4-dimethoxyphenyl)-3-[(4-methoxy-phenoxy)methyl]-5H-[1,2,4]triazolo[3,4-b][1,3,4]thiadiazine]: the IC50 in data set [1] is 10 to 19 µM; in data set [2], 1.2 µM. Moreover, in data set [3], the cytotoxicity entry is “without measurable cytotoxicity; also recorded: no overt cytotoxicity”.
